Here are results for one sequence from patent US20250320274A1, “RECOMBINANT HUMAN COLLAGEN AND METHOD FOR BUILDING SAME” (NANTONG UNIVERSITY, priority 2020, published 2025).

No end group written: not given here.

The series is described as follows: water solubility test. It counts as physicochemical. The settings on record: 32 mg in 8 ml of water, directly without stirring.

For GPAGARGNDGATGAAGPPGPTGPAGPPGFP, the water solubility entry was “clear solution with no color, no precipitation, and no floating matter”.
